Experiments:
[1] = Non-enzymatic hydrolysis of HMB esters in phosphate buffer; assay type: physicochemical; conditions: for HMB/HMB-ester ratio for non-enzyme catalyzed hydrolysis: ester 1 mM, phosphate buffer pH 7.2, approx. 25° C., 24 hours
Description: To carry out the hydrolysis of the ester, HMB-methyl ester (1 mM) was added to a 40 mL reaction vial along with water (12 mL) and a 0.1 M phosphate buffer having a pH of 7.2 (2 mL). The reaction was carried out at a constant temperature of, approximately 25° C. and constant stirring over a period of 24 hours. During the course of the reaction, the pH of the reaction mixture was maintained at 7.2. After the reaction was complete, the reaction solvents were removed from the reaction mixture with a rotary evaporator.
(§1) The non-enzymatic hydrolysis and the lipase mediated hydrolysis reactions were each carried out at a constant temperature of approximately 25° C. with constant stirring over the course of a 24 hour period. During the course of reaction pH of the reaction mixture was maintained at 7.2. After the reaction was complete, the reaction solvents were removed from the reaction mixture with a rotary evaporator.
(§2) After each of the hydrolysis reactions, the dry hydrolysis reaction product containing the α-hydroxy acid of HMB was dissolved in ethanol (10 mL), a sample of the reaction product solution (1 mL) was taken and diluted with additional ethanol (9 mL) and the further diluted solution was filtered through a filter having a pore size of 2 μm (Model manufactured by Millipore Corp. of Bedford, Mass.). The filtered extract was then introduced into the liquid chromatograph and the free acid and residual ester were separated on a C-8 reverse phase liquid chromatography column of the type described above.
(§3) Ethanol was removed from the remaining product mixture by rotary evaporation and the α-hydroxy acid product was re-dissolved in ethyl acetate (5 mL). The solution containing the α-hydroxy acid product was transferred to a 15 mL centrifuge tube to which 1 M sodium bicarbonate (6 mL) was added after which the centrifuge tube was shaken for a period of about five minutes, thus forming an ethyl acetate layer containing HMB-methyl ester and a sodium bicarbonate layer containing D- and L-enantiomers of the α-hydroxy acid, HMB. These layers were then separated with a centrifuge and each of the separated layers were brought to near dryness with a rotary evaporator and the residue from the bicarbonate layer was dissolved in ethanol (5 mL) to form a solution which was filtered and analyzed for D- and L-enantiomers of HMB by chiral liquid chromatography in accordance with the method set forth below.
(§4) The dry residue from the ethyl acetate layer containing HMB-methyl ester was hydrolyzed with 6N HCl (2 mL) for a period of two hours to produce HMB which was solubilized in ethanol. The ethanol solutions were filtered and analyzed for D- and L-enantiomers of HMB by chiral liquid chromatography in accordance with the method set forth below.
(§5) Separation of the D- and L-forms of the α-hydroxy acid of HMB present in the sodium bicarbonate phase was carried out by liquid chromatography (LC) with a UV absorbance detector in tandem with electrospray ionization mass spectrometry in the negative mode (ESI(−)MS). […] The electrospray ionization mass spectrometer utilized was manufactured by Hitachi High Technologies (Model M-8000). The mobile phase composition consisted of 70% ammonium acetate buffer (pH 4, 30 mM) and 30% methanol. A macrocyclic antibiotic based column (Chirobiotic-TAG), manufactured by Advanced Separation Technologies, Inc., Whippany, N.J., was used for the chiral liquid chromatography.

Aspergillus niger lipase = Aspergillus niger lipase catalyzed hydrolysis of HMB esters; assay type: biochemical; conditions: for extent of ester hydrolysis (in words): Aspergillus niger lipase, RPLC; for HMB/HMB-ester ratio for Aspergillus niger lipase catalyzed hydrolysis: ester 1 mM, lipase 120 mg, pH 7.2, approx. 25° C., 24 hours
Description: In one lipase mediated hydrolysis, HMB-methyl ester (1 mM) was added to a 40 mL reaction vial along with water (12 mL), a 0.1 M phosphate buffer with a pH of 7.2 (2 mL) and Aspergillus niger (120 mg).
as §1, §2, §3, §4, §5

Candida rugosa lipase = Candida rugosa lipase catalyzed hydrolysis of HMB esters; assay type: biochemical; conditions: for extent of ester hydrolysis (in words): Candida rugosa lipase, RPLC; for HMB/HMB-ester ratio for Candida rugosa lipase catalyzed hydrolysis: ester 1 mM, lipase 120 mg, pH 7.2, approx. 25° C., 24 hours
Description: In another lipase mediated hydrolysis, HMB-methyl ester (1 mM) was added to a 40 mL reaction vial along with water (12 mL), a 0.1 M phosphate buffer with a pH of 7.2 (2 mL) and Candida rugosa (120 mg).
as §1, §2, §3, §4, §5

[2] = target: T1, Novo 435 (Candida antarctica) lipase (Moesziomyces antarcticus, UniProt P41365); test: Novo 435 (Candida antarctica) lipase catalyzed hydrolysis of HMB esters; assay type: biochemical; conditions: for extent of ester hydrolysis (in words): Novo 435, RPLC; for HMB/HMB-ester ratio for Novo 435 (Candida antarctica) lipase catalyzed hydrolysis: ester 1 mM, immobilized lipase 6 mg, pH 7.2, approx. 25° C., 24 hours
T1 construct: purchased Novo (only as part of the product name) 435 (also given as 438)
T1 sequence (P41365 26-342): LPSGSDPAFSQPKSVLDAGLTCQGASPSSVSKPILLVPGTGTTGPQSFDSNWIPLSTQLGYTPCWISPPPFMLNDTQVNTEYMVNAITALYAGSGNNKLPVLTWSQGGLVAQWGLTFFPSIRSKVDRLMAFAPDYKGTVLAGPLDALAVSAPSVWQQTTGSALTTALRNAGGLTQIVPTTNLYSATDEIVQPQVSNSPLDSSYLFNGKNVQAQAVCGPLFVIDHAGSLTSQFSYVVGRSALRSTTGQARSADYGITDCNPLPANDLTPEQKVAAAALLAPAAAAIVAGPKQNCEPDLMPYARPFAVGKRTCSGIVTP
Description: In another lipase mediated hydrolysis, HMB-methyl ester (1 mM) was added to a 40 mL reaction vial along with water (12 mL), a 0.1 M phosphate buffer with a pH of 7.2 (2 mL) which was contacted with an immobilized sample of Novo 438 (Candida antarctica) (6 mg).
as §1, §2

[3] = target: T2, porcine pancreatic lipase (PPL) (Sus scrofa, UniProt P00591); test: PPL lipase catalyzed hydrolysis of HMB esters; assay type: biochemical; conditions: for extent of ester hydrolysis (in words): PPL, RPLC; for HMB/HMB-ester ratio for PPL lipase catalyzed hydrolysis: ester 1 mM, PPL 120 mg, pH 7.2, approx. 25° C., 24 hours; for Enantioselectivity of hydrolysis: Free Acid (L/D) / Enantioselectivity of hydrolysis: Ester (L/D): lipase PPL; for Enantioselectivity of hydrolysis: Free Acid (L/D): chiral LC of HMB from bicarbonate layer; for Enantioselectivity of hydrolysis: Ester (L/D): unhydrolyzed ester, chiral LC after 6N HCl hydrolysis
T2 sequence (P00591 1-450): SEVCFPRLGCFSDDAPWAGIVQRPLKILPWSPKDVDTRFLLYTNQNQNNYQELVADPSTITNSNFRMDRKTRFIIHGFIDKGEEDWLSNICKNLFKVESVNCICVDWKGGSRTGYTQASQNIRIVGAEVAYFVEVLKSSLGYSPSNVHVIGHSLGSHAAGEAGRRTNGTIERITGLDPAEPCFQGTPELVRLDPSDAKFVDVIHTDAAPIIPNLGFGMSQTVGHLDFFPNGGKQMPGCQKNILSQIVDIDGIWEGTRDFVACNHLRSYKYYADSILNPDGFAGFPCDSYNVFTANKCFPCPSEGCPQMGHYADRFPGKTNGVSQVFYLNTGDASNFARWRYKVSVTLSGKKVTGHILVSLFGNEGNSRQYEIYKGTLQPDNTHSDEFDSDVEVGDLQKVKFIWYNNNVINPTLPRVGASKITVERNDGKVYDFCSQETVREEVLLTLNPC
Description: In another lipase mediated hydrolysis, HMB-methyl ester (1 mM) was added to a 40 mL reaction vial along with water (12 mL), a 0.1 M phosphate buffer with a pH of 7.2 (2 mL) and PPL (120 mg).
as §1, §2, §3, §4, §5
As part of these investigations, HMB-butyl ester and HMB obtained from the hydrolysis were recovered from the reaction mixture through portioning in ethyl acetate and […] bicarbonate solution. The HMB acid was recovered from the bicarbonate solution; it was introduced into an enantioselective HPLC system. The recovered HMB-butyl ester was hydrolyzed with 6N HCl (chemically) and then introduced into the enantioselective HPLC system. Chromatograms of HMB enantiomers obtained after non-enzymatic and PPL catalyzed HMB-butyl ester hydrolysis are illustrated in FIGS. 7A-B respectively.

[4] = Hydrolysis of HMB propyl ester with alginate beads without enzymes (control); assay type: physicochemical; conditions: water, 37° C., 2 hours and 3.30 hours
Description: Reversed phase chromatography method was used for all the chromatograms set forth in the drawings. The mobile phases chosen were water +0.1% trifluroacetic acid (TFA) (solvent A) and acetonitrile +0.1% TFA (solvent B). The column was maintained at 30° C. The reaction was monitored at 220 nm and gradient elution for the mobile phases used was 0 to 55% solvent B in 30 min.
The hydrolysis of HMBP was also checked using alginate beads without enzymes(CONTROL). The gel beads were placed in a conical flask of water (20 ml) and HMB propyl ester (240 mg) were added to it. The mixture was thereafter maintained at a temperature of 37° C. The chromatograms of FIGS. 15A and 15B are obtained for the product formed, for the same time constraints as before.

immobilized PPL = target: T3, immobilized PPL (Sus scrofa, UniProt P00591); test: Hydrolysis of HMB propyl ester using gel-bound (alginate-immobilized) PPL beads; assay type: biochemical, porcine; conditions: after a run of 3 hrs
T3 sequence (P00591 1-450): T2 sequence (P00591 1-450)
Description: Sodium alginate (500 mg), gelatin (300 mg) and water (9 ml) are introduced into and mixed in a 50 ml conical flask. The mix is then left undisturbed for 1 hour, after which the flask and its contents are autoclaved (120° C., 15 min.). The contents are then cooled at room temperature under continuous stirring. After the contents have cooled down, PPL (100 mg) in water (1 ml) is added to the flask and the contents stirred for further 15-20 min. Then glutaraldehyde (300 μl) is added to the flask contents and the mixture stirred for another 15 min. These contents are added drop-wise from a distance of around 10 cm by forcing them through the hypodermic needle in a 0.18M calcium chloride solution (2°-3° C.) . The gel breads solidify immediately upon contact with the calcium chloride solution, and after 30 min. are solidified. The solidified gel beads are washed 3-4 times with water to remove any loose enzyme from the surface.
The immobilized enzyme catalyst beads as prepared in the manner described in Example 6 were placed in a conical flask. […]
Reversed phase chromatography method was used for all the chromatograms set forth in the drawings. […] The reaction was monitored at 220 nm and gradient elution for the mobile phases used was 0 to 55% solvent B in 30 min.

| SMILES | ester hydrolyzed by non-enzymatic hydrolysis ([1]; FIG. 4A) | HMB/HMB-ester ratio for non-enzyme catalyzed hydrolysis [1] | D- and L-HMB enantiomers obtained through chemical hydrolysis ([1]; non-enzymatic hydrolysis, FIG. 7A) | extent of ester hydrolysis (in words) (Aspergillus niger lipase) | HMB/HMB-ester ratio for Aspergillus niger lipase catalyzed hydrolysis (Aspergillus niger lipase) | extent of ester hydrolysis (in words) (Candida rugosa lipase) | HMB/HMB-ester ratio for Candida rugosa lipase catalyzed hydrolysis (Candida rugosa lipase) | extent of ester hydrolysis (in words) [2] | HMB/HMB-ester ratio for Novo 435 (Candida antarctica) lipase catalyzed hydrolysis [2] | concentration of L-enantiomer relative to D-enantiomer of HMB obtained ([3]; PPL catalyzed hydrolysis, FIG. 7B) | extent of ester hydrolysis (in words) [3] | HMB/HMB-ester ratio for PPL lipase catalyzed hydrolysis [3] | Enantioselectivity of hydrolysis: Free Acid (L/D) [3] | Enantioselectivity of hydrolysis: Ester (L/D) [3] | Enantioselectivity of hydrolysis: Free Acid (L/D) (Candida rugosa lipase; lipase Candida rugosa, chiral LC of HMB from bicarbonate layer) | Enantioselectivity of hydrolysis: Ester (L/D) (Candida rugosa lipase; lipase Candida rugosa, unhydrolyzed ester, chiral LC after 6N HCl hydrolysis) | Enantioselectivity of hydrolysis: Free Acid (L/D) (Aspergillus niger lipase; lipase Aspergillus niger, chiral LC of HMB from bicarbonate layer) | Enantioselectivity of hydrolysis: Ester (L/D) (Aspergillus niger lipase; lipase Aspergillus niger, unhydrolyzed ester, chiral LC after 6N HCl hydrolysis) | hydrolysis with alginate beads without enzymes [4] | conversion of ester to HMB acid (immobilized PPL) [%] |
| --- | --- | --- | --- | --- | --- | --- | --- | --- | --- | --- | --- | --- | --- | --- | --- | --- | --- | --- | --- | --- |
| CCCCOC(=O)C(O)CCSC (centres unmarked) [HMB-butyl ester, HMB butyl ester] | less than 1% | 0.09 | equal concentrations | Essentially all | 160.57 | Essentially all | 42.6 | Essentially all | 176.3 | nearly four times | only partial | 2.0 | 81/19 | 19/81 | – | – | – | – | – | – |
| CCOC(=O)C(O)CCSC (centres unmarked) [HMB-ethyl ester, HMB ethyl ester] | – | 0.53 | – | – | 16.71 | – | 7.84 | – | – | – | – | 0.94 | 57/43 | 43/57 | 62/38 | 38/62 | – | – | – | – |
| CSCCC(O)C(=O)OC(C)C (centres unmarked) [HMB-isopropyl ester, HMB isopropyl ester] | – | 0.36 | – | – | 0.81 | – | 9.8 | – | 165 | – | – | 3.3 | – | – | – | – | 68/32 | 32/68 | – | – |
| COC(=O)C(O)CCSC (centres unmarked) [HMB-methyl ester, HMB methyl ester] | – | 1.45 | – | partial | 4.55 | near completion | 62.37 | near completion | 128 | – | partial | 2.53 | – | – | – | – | – | – | – | – |
| CCCOC(=O)C(O)CCSC (centres unmarked) [HMB-propyl ester, HMB propyl ester] | – | 0.09 | – | – | 149.24 | – | 84.45 | – | 52.27 | – | – | 1.69 | 75/25 | 22/78 | – | – | – | – | no hydrolysis | 50 |
